A word on the Cmax: it is the maximum level reached in the sampled fluid or tissue. As usually defined, the Tmax is the time at which the peak concentration occurs. The term AUC(0-inf) denotes total exposure, with the tail of the curve extrapolated. A higher AUC(0-inf) goes with high exposure. One may read the bioavailability as dose-corrected exposure relative to a reference, in per cent. The low end stands for little systemic uptake, the high end for much systemic uptake.

SMILES strings stand for the structures.

The nature of data set [1]: Cmax in Wistar Han rat at 5 mg/kg,po administrated for 24 hrs by LC-MS/MS analysis. The format is ADME, organism-based. Also on record: dose 5 mg/kg, time 24 hrs, route po. Particulars: in vivo; call rule not given here.
Data set [2] can be described thus: Tmax in Wistar Han rat at 5 mg/kg,po administrated for 24 hrs by LC-MS/MS analysis. Format: ADME, organism-based. The following applies: in vivo.
A short description of data set [3]: AUC (0-infinity) in Wistar Han rat at 2 mg/kg,iv administrated for 24 hrs by LC-MS/MS analysis. The format is ADME, organism-based. Also on record: time 24 hrs, dose 2 mg/kg, route iv. The following applies: in vivo.
Data set [4] is described as follows: AUC (0-infinity) in Wistar Han rat at 5 mg/kg,po administrated for 24 hrs by LC-MS/MS analysis. The format is ADME, organism-based. More on the design: time 24 hrs, dose 5 mg/kg, route po. The following applies: in vivo.
Data set [5] in a line: Volume of distribution at steady state in Wistar Han rat at 2 mg/kg,iv administrated for 24 hrs by LC-MS/MS analysis. The format is ADME, organism-based. Particulars: in vivo, read-out: Vdss.
The nature of data set [6]: Oral bioavailability in Wistar Han rat at 5 mg/kg administrated for 24 hrs by LC-MS/MS analysis. The format is ADME, organism-based. Particulars: in vivo.
Data set [7] is described as follows: Drug concentration in M22-induced Wistar rat plasma at 12.5 to 100 micromol/kg,po measured upto 24 hrs by LC-MS/MS analysis. Format: ADME, cell-free. Particulars: dose 12.5-100 µmol/kg.
The nature of data set [8]: Drug concentration in M22-induced Wistar rat plasma at 12.5 micromol/kg,po measured upto 24 hrs by LC-MS/MS analysis. Format: ADME, cell-free. The following applies: dose 12.5 µmol/kg.

Regarding `CC(=O)N1CCC(C)(c2ccccc2)c2cc(NC(=O)CCc3cccc(C(F)(F)F)c3)ccc21` (racemic), the Cmax in data set [1] stood at 52 ng/mL. The time to peak (Tmax) in data set [2] was 1 h. Moreover, the area under the curve AUC(0-inf) in data set [3] was determined as 694 ng·h/mL; in data set [4] it was 141 ng·h/mL. Besides, in data set [5], the Vd came out at 2.41 L/kg. Also, the bioavailability in data set [6] amounted to 8%.

As to `CC(=O)N1c2cnc(NC(=O)O[C@@H](C)C(C)(C)C)nc2C2(CCC(F)(F)CC2)C1(C)C`, the Cmax in data set [1] turned out to be 145 ng/mL. Besides, in data set [2], the Tmax amounted to 1 h. Besides, the AUC(0-inf) was determined as 617 ng·h/mL in data set [3] and 709 ng·h/mL in data set [4]. The Vd in data set [5] stood at 8.76 L/kg. This compound displayed a bioavailability in data set [6] of 47%. Moreover, the Drug uptake entry in data set [7] was “Active”; in data set [8], “Not Active”.

These data come from ChEMBL document CHEMBL5252644, “Discovery of SYD5115, a novel orally active small molecule TSH-R antagonist” (Bioorg Med Chem, 2023).
